Entries after “also recorded” stand apart in the source; their conditions may differ. Read-outs that look alike come from different tables or passages of the source. Numbered stars: 1 amine (or outer) side, 2 acyl side, 3 side chain; on linkers, the order of the positions; unused ones are H or OH. Square brackets hold non-standard residues; d marks the D form. Ends that are not written are not given here. Peptide text beside a SMILES is read from it. * marks the point of attachment. X1 = N=c1ccc2c(-c3ccccc3C(=O)*)c3ccc(N)c(S(=O)(=O)O)c3oc-2c1S(=O)(=O)O; NMeGABA = CN(CCCC(=O)[*:2])[*:1]
Key:
[1] = system: DDB1‐DCAF12, DCAF12 Lys108Ala mutant; type: binding, human; details: TR-FRET titration, n = 3
[2] = system: DDB1‐DCAF12, DCAF12 His144Ala mutant; type: binding, human; details: TR-FRET titration, n = 3
[3] = system: DDB1‐DCAF12, DCAF12 Arg203Ala mutant; type: binding, human; details: TR-FRET titration, n = 3
[4] = system: DDB1‐DCAF12, DCAF12 Arg256Ala mutant; type: binding, human; details: TR-FRET titration, n = 3
[5] = system: DDB1‐DCAF12, DCAF12 Arg344Ala mutant; type: binding, human; details: TR-FRET titration, n = 3
DDB1‐DCAF12 [6] = target: T1, DDB1‐DCAF12 (Homo sapiens, UniProt Q16531+Q5T6F0); assay: TR-FRET competition assay; type: binding
T1 sequence (Q5T6F0 whole entry): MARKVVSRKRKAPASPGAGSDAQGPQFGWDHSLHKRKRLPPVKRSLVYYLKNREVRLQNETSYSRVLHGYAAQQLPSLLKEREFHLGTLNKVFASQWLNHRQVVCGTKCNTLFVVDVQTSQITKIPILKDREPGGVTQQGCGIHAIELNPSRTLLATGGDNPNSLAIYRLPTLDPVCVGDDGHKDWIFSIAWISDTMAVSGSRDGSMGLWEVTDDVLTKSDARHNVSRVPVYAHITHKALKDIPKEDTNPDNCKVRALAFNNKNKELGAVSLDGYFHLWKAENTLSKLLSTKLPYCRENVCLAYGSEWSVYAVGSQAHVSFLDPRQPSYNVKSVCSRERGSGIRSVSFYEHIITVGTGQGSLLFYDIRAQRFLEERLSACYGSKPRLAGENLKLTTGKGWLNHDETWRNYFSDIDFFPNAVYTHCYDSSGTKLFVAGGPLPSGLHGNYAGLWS
T1 sequence (Q16531 whole entry partner): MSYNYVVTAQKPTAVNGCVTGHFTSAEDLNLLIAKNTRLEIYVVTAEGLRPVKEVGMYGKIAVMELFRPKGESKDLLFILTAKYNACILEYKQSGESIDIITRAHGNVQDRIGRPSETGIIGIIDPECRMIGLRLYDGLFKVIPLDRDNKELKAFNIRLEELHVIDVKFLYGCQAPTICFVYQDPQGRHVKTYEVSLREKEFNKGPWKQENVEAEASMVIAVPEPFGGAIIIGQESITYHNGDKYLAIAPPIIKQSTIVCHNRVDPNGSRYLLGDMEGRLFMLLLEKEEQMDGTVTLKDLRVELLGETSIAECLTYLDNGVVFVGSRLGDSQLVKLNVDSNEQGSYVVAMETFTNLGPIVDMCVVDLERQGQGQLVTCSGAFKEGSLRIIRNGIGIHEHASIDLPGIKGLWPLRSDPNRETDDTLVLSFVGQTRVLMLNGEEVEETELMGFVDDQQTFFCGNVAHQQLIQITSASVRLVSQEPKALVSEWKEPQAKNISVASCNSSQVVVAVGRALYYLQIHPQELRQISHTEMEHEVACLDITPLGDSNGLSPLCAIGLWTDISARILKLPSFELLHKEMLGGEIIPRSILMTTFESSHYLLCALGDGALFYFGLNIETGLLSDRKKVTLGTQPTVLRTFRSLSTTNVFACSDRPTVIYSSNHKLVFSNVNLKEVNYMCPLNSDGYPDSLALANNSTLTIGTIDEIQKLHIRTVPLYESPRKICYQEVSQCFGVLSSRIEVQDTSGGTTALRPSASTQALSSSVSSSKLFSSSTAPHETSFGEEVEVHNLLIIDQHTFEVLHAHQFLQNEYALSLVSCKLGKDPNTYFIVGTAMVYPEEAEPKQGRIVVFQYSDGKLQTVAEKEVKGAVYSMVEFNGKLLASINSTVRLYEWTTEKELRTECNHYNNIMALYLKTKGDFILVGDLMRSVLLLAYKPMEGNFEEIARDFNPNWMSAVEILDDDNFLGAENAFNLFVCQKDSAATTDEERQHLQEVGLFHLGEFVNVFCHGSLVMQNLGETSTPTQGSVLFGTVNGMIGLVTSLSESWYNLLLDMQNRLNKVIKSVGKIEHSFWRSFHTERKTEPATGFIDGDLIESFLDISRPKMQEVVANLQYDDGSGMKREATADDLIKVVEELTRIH

[7] = target: biotinylated strep(II)-avi-DDB1-strep(II)-DCAF12 complex (wild type) (homo sapiens) (UniProt Q16531); assay: FRET or BRET
Sequence of biotinylated strep(II)-avi-DDB1-strep(II)-DCAF12 complex (wild type) (homo sapiens) (Q16531 whole entry, chain 1 of 2): as the sequence (Q16531 whole entry partner) above
Sequence of biotinylated strep(II)-avi-DDB1-strep(II)-DCAF12 complex (wild type) (homo sapiens) (Q5T6F0 whole entry, chain 2 of 2, further chain): as the sequence (Q5T6F0 whole entry) above

DDB1‐DCAF12 [8] = target: T1, DDB1‐DCAF12; assay: In vitro pull-downs with strep; type: binding; details: strep(II)-tagged DDB1-DCAF12, untagged CCT5; Coomassie-stained SDS–PAGE

Sequence of CCT5_(10) peptide Glu532Ala (P48643 whole entry, looked up, change not shown, tested part not stated): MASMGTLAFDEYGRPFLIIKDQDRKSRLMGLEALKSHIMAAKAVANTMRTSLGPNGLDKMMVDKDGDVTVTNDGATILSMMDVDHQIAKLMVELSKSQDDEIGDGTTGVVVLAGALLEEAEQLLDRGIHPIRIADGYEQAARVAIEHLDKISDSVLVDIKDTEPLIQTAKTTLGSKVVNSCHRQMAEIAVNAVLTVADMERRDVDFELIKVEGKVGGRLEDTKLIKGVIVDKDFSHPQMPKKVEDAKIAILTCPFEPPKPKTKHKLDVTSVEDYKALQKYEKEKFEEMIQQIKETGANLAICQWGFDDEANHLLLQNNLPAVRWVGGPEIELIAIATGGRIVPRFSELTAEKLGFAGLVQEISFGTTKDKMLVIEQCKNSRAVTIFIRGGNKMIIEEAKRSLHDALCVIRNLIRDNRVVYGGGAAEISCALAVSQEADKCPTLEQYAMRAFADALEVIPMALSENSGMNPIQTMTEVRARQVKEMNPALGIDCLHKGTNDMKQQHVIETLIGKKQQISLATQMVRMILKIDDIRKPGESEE

With `CC[C@H](C)[C@H](NC(=O)[C@H](CCSC)NC(=O)[C@H](CCCNC(=N)N)NC(=O)[C@@H](NC(=O)[C@H](CCSC)NC(=O)[C@H](CCC(N)=O)NC(=O)CCCN(C)C(=O)c1ccccc1-c1c2ccc(=N)c(S(=O)(=O)O)c-2oc2c(S(=O)(=O)O)c(N)ccc12)C(C)C)C(=O)N[C@@H](CC(C)C)C(=O)N[C@@H](CCCCN)C(=O)N[C@H](C(=O)N[C@@H](CC(=O)O)C(=O)N[C@@H](CC(=O)O)C(=O)N[C@H](C(=O)N[C@@H](CCCNC(=N)N)C(=O)N[C@@H](CCCCN)C(=O)N1CCC[C@H]1C(=O)NCC(=O)N[C@@H](CCC(=O)O)C(=O)N[C@@H](CO)C(=O)N[C@@H](CCC(=O)O)C(=O)N[C@@H](CCC(=O)O)C(=O)O)[C@@H](C)CC)[C@@H](C)CC` [^488CCT5_20] (X1-[NMeGABA]QMVRMILKIDDIRKPGESEE-OH; C-terminus assumed) the “binding to DCAF12 Lys108Ala mutant (in words)” value [1] was “failed to bind”, the “binding to DCAF12 His144Ala mutant (in words)” value [2] was “failed to bind” and the “binding to DCAF12 Arg203Ala mutant (in words)” value [3] was “abrogated substrate binding”. For the same molecule, the “binding to DCAF12 Arg256Ala mutant (in words)” value [4] was “abolished; also recorded: failed to bind” and the “binding to DCAF12 Arg344Ala mutant (in words)” value [5] was “failed to bind”.

DIRKPGESEE [CCT5_10] gave an IC50 (DDB1‐DCAF12 [6]) of 363 ± 78 nM.

With DIAKPGESEE [CCT510 R534A] the IC50 (DDB1‐DCAF12 [6]) was 395 ± 68 nM.

DIRKAGESEE [CCT510 P536A] was tested, and the IC50 (DDB1‐DCAF12 [6]) was 417 ± 53 nM.

In the case of EGWRLFKIDKEYLLKMATEE [SAT1_20], the IC50 (DDB1‐DCAF12 [6]) is reported as 291 ± 38 nM.

Work on DIRKPGEAEE [CCT510 S539A] yielded an IC50 (DDB1‐DCAF12 [6]) of 125 ± 15 nM.

For AIRKPGESEE [CCT510 D532A], the IC50 (DDB1‐DCAF12 [6]) was 222 ± 25 nM.

“CCT5_(10) peptide Glu532Ala (from UniProt P48643 532-541)” gave an IC50 [7] of 222 nM.

In the case of “CCT5: purified recombinant full‐length human CCT5, a subunit of the TRiC chaperonin, monomeric”, the “binding to DDB1-DCAF12 in pull-down (in words)” value (DDB1‐DCAF12 [8]) is reported as “efficiently bound”.

Molecule DIRAPGESEE [CCT510 K535A] has an IC50 (DDB1‐DCAF12 [6]) of 208 ± 26 nM.

In the case of DARKPGESEE [CCT510 I533A], the IC50 (DDB1‐DCAF12 [6]) is reported as 209 ± 25 nM.

For “TRiC: recombinant ~ 1 MDa human TRiC chaperonin complex of eight co‐expressed subunits”, the IC50 (DDB1‐DCAF12 [6]; TR-FRET competition against TbDDB1-DCAF12^488, n = 3) was > 10000 nM.

For DIRKPGESAE [CCT510 E540A], the IC50 (DDB1‐DCAF12 [6]; IC50, TR-FRET competition against TbDDB1-DCAF12^488, n = 3) was > 50000 nM.

For “CCT5 (1–529): CCT5 mutant without the 12 C‐terminal residues”, the “binding to DDB1-DCAF12 in pull-down (in words)” value (DDB1‐DCAF12 [8]) was “did not bind”.

DIRKPGASEE [CCT510 E538A] gave an IC50 (DDB1‐DCAF12 [6]) of 571 ± 103 nM.

From article PMC9929631 (The EMBO Journal, 2023)
